Reference: ChEMBL document CHEMBL3885881, “DrugMatrix”

Species on record: Rattus norvegicus
Format: toxicity, organism-based, Sprague-Dawley
Settings: in vivo, po, route oral GAVAGE, vehicle 100 % SALINE; for ABSOLUTE EOSINOPHIL / ABSOLUTE LYMPHOCYTE / ABSOLUTE MONOCYTE / ABSOLUTE SEGMENTED NEUTROPHIL / BASOPHIL / EOSINOPHIL / ERYTHROCYTE COUNT / HEMATOCRIT / HEMOGLOBIN / LEUKOCYTE COUNT / LYMPHOCYTE / MEAN CORPUSCULAR HEMOGLOBIN / MEAN CORPUSCULAR HEMOGLOBIN CONCENTRATION / MEAN CORPUSCULAR VOLUME / MONOCYTE / NEUTROPHIL / NUCLEATED RED BLOOD CELLS / PLATELET COUNT: tissue Blood; for ALANINE AMINOTRANSFERASE / ALBUMIN / ALKALINE PHOSPHATASE / ASPARTATE AMINOTRANSFERASE / BLOOD UREA NITROGEN / CARBON DIOXIDE / CHLORIDE / CHOLESTEROL / CREATINE PHOSPHOKINASE / CREATININE / GLUCOSE / LACTATE DEHYDROGENASE / LIPASE / PHOSPHORUS / POTASSIUM / SODIUM / TOTAL BILIRUBIN / TOTAL PROTEIN / URIC ACID: tissue Plasma
[1] = 10 mg/kg, 24 h, dose level Low, time 1 day
[2] = 30 mg/kg, 6 h, dose level High, time 0.25 day
[3] = 30 mg/kg, 24 h, dose level High, time 1 day

Description: DrugMatrix - Regimen: Single

## O=[As][O-].[Na+] [SODIUM ARSENITE]
[1]
  ABSOLUTE EOSINOPHIL: 15.17 CELLS/uL
  ABSOLUTE LYMPHOCYTE: 9656.17 CELLS/uL
  ABSOLUTE MONOCYTE: 190.33 CELLS/uL
  ABSOLUTE SEGMENTED NEUTROPHIL: 505 CELLS/uL
  BASOPHIL: 0%
  EOSINOPHIL: 0.17%
  ERYTHROCYTE COUNT: 4.96 x10E6/uL
  HEMATOCRIT: 32.55%
  HEMOGLOBIN: 12.85 G/DL
  LEUKOCYTE COUNT: 10.37 x10E3/uL
  LYMPHOCYTE: 93%
  MEAN CORPUSCULAR HEMOGLOBIN: 25.92 pg
  MEAN CORPUSCULAR HEMOGLOBIN CONCENTRATION: 39.47 G/DL
  MEAN CORPUSCULAR VOLUME: 65.67 fL
  MONOCYTE: 1.83%
  NEUTROPHIL: 5%
  NUCLEATED RED BLOOD CELLS: 0 /100WBC
  PLATELET COUNT: 1030.17 x10E3/uL
  ALANINE AMINOTRANSFERASE: 32.83 u/L
  ALBUMIN: 4.12 G/DL
  ALKALINE PHOSPHATASE: 249.5 u/L
  ASPARTATE AMINOTRANSFERASE: 61.17 u/L
  BLOOD UREA NITROGEN: 11 mg/dL
  CARBON DIOXIDE: 31.17 mmol/L
  CHLORIDE: 98.33 MEQ/L
  CHOLESTEROL: 81.67 mg/dL
  CREATINE PHOSPHOKINASE: 185.5 u/L
  CREATININE: 0.18 mg/dL
  GLUCOSE: 153.5 mg/dL
  LACTATE DEHYDROGENASE: 58.67 u/L
  LIPASE: 9.83 u/L
  PHOSPHORUS: 10.27 mg/dL
  POTASSIUM: 5.57 MEQ/L
  SODIUM: 143.25 MEQ/L
  TOTAL BILIRUBIN: 0.13 mg/dL
  TOTAL PROTEIN: 5.97 G/DL
  URIC ACID: 0.45 mg/dL
[2]
  ABSOLUTE EOSINOPHIL: 50 CELLS/uL
  ABSOLUTE LYMPHOCYTE: 13297 CELLS/uL
  ABSOLUTE MONOCYTE: 256.33 CELLS/uL
  ABSOLUTE SEGMENTED NEUTROPHIL: 2130 CELLS/uL
  BASOPHIL: 0%
  EOSINOPHIL: 0.33%
  ERYTHROCYTE COUNT: 5.91 x10E6/uL
  HEMATOCRIT: 39.97%
  HEMOGLOBIN: 14.47 G/DL
  LEUKOCYTE COUNT: 15.73 x10E3/uL
  LYMPHOCYTE: 84.67%
  MEAN CORPUSCULAR HEMOGLOBIN: 24.55 pg
  MEAN CORPUSCULAR HEMOGLOBIN CONCENTRATION: 36.2 G/DL
  MEAN CORPUSCULAR VOLUME: 67.78 fL
  MONOCYTE: 1.67%
  NEUTROPHIL: 13.33%
  NUCLEATED RED BLOOD CELLS: 0 /100WBC
  PLATELET COUNT: 1100.5 x10E3/uL
  ALANINE AMINOTRANSFERASE: 96.5 u/L
  ALBUMIN: 4.35 G/DL
  ALKALINE PHOSPHATASE: 225.33 u/L
  ASPARTATE AMINOTRANSFERASE: 192.17 u/L
  BLOOD UREA NITROGEN: 19.33 mg/dL
  CARBON DIOXIDE: 17.5 mmol/L
  CHLORIDE: 99.67 MEQ/L
  CHOLESTEROL: 64.33 mg/dL
  CREATINE PHOSPHOKINASE: 1132 u/L
  CREATININE: 0.23 mg/dL
  GLUCOSE: 205 mg/dL
  LACTATE DEHYDROGENASE: 746.17 u/L
  LIPASE: 8.17 u/L
  PHOSPHORUS: 16.53 mg/dL
  POTASSIUM: 6.95 MEQ/L
  SODIUM: 140.37 MEQ/L
  TOTAL BILIRUBIN: 0.2 mg/dL
  TOTAL PROTEIN: 5.83 G/DL
  URIC ACID: 4.12 mg/dL
[3]
  ABSOLUTE EOSINOPHIL: 0 CELLS/uL
  ABSOLUTE LYMPHOCYTE: 12176.83 CELLS/uL
  ABSOLUTE MONOCYTE: 320 CELLS/uL
  ABSOLUTE SEGMENTED NEUTROPHIL: 353.17 CELLS/uL
  BASOPHIL: 0%
  EOSINOPHIL: 0%
  ERYTHROCYTE COUNT: 5.64 x10E6/uL
  HEMATOCRIT: 36.4%
  HEMOGLOBIN: 14.38 G/DL
  LEUKOCYTE COUNT: 12.85 x10E3/uL
  LYMPHOCYTE: 94.83%
  MEAN CORPUSCULAR HEMOGLOBIN: 25.55 pg
  MEAN CORPUSCULAR HEMOGLOBIN CONCENTRATION: 39.53 G/DL
  MEAN CORPUSCULAR VOLUME: 64.63 fL
  MONOCYTE: 2.33%
  NEUTROPHIL: 2.83%
  NUCLEATED RED BLOOD CELLS: 0.17 /100WBC
  PLATELET COUNT: 1165.33 x10E3/uL
  ALANINE AMINOTRANSFERASE: 12.67 u/L
  ALBUMIN: 3.88 G/DL
  ALKALINE PHOSPHATASE: 235.5 u/L
  ASPARTATE AMINOTRANSFERASE: 43.83 u/L
  BLOOD UREA NITROGEN: 14.83 mg/dL
  CARBON DIOXIDE: 30.67 mmol/L
  CHLORIDE: 99.5 MEQ/L
  CHOLESTEROL: 62.17 mg/dL
  CREATINE PHOSPHOKINASE: 219.17 u/L
  CREATININE: 0.2 mg/dL
  GLUCOSE: 139.5 mg/dL
  LACTATE DEHYDROGENASE: 82 u/L
  LIPASE: 9 u/L
  PHOSPHORUS: 10.38 mg/dL
  POTASSIUM: 5.78 MEQ/L
  SODIUM: 143.5 MEQ/L
  TOTAL BILIRUBIN: 0.12 mg/dL
  TOTAL PROTEIN: 5.75 G/DL
  URIC ACID: 0.75 mg/dL
